Results: patent US7417156B2, “Orally active, antimalarial, anticancer, artemisinin-derived trioxane dimers” (Johns Hopkins University, priority 2002, dated 2008)

Assays:
[1] = system: P. berghei NY malaria parasite; assay: Antimalarial efficacies in vivo in mice
Text: Neither overt toxicity nor behavioral modification was observed due to drug administration in any of these mouse experiments.

malaria parasite = assay: Efficacy Study Blood Schizontocidal Activity; format: in vivo; set-up: ED90: unit not given here
HL-60(TB) = assay: NCI 60 cell line panel screen (SRB); format: cell-based, human; settings: for Log10TGI50 / Log10LC50: HL-60(TB) (Leukemia); for Log10TGI50: TGI: PG=0; for Log10LC50: LC50: PG=−50; for Log10GI50: Leukemia, HL-60(TB)
EKVX = assay: NCI 60 cell line panel screen (SRB); format: cell-based, human; settings: for Log10TGI50 / Log10LC50: EKVX (Non-Small Cell Lung Cancer); for Log10TGI50: TGI: PG=0; for Log10GI50: Non-Small Cell Lung Cancer, EKVX; for Log10LC50: LC50: PG=−50
HOP-62 = assay: NCI 60 cell line panel screen (SRB); format: cell-based, human; settings: for Log10TGI50 / Log10LC50: HOP-62 (Non-Small Cell Lung Cancer); for Log10TGI50: TGI: PG=0; for Log10GI50: Non-Small Cell Lung Cancer, HOP-62; for Log10LC50: LC50: PG=−50
COLO 205 = assay: NCI 60 cell line panel screen (SRB); format: cell-based, human; settings: for Log10TGI50 / Log10LC50: COLO 205 (Colon Cancer); for Log10TGI50: TGI: PG=0; for Log10LC50: LC50: PG=−50; for Log10GI50: Colon Cancer, COLO 205
KM12 = assay: NCI 60 cell line panel screen (SRB); format: cell-based, human; settings: for Log10TGI50 / Log10LC50: KM12 (Colon Cancer); for Log10TGI50: TGI: PG=0; for Log10GI50: Colon Cancer, KM12; for Log10LC50: LC50: PG=−50
786-0 = assay: NCI 60 cell line panel screen (SRB); format: cell-based, human; settings: for Log10TGI50 / Log10LC50: 786-0 (Renal Cancer); for Log10TGI50: TGI: PG=0; for Log10GI50: Renal Cancer, 786-0; for Log10LC50: LC50: PG=−50
CAKI-1 = assay: NCI 60 cell line panel screen (SRB); format: cell-based, human; settings: for Log10TGI50 / Log10LC50: CAKI-1 (Renal Cancer); for Log10TGI50: TGI: PG=0; for Log10GI50: Renal Cancer, CAKI-1; for Log10LC50: LC50: PG=−50
RXF 393 = assay: NCI 60 cell line panel screen (SRB); format: cell-based, human; settings: for Log10TGI50 / Log10LC50: RXF 393 (Renal Cancer); for Log10TGI50: TGI: PG=0; for Log10LC50: LC50: PG=−50; for Log10GI50: Renal Cancer, RXF 393
T-47D = assay: NCI 60 cell line panel screen (SRB); format: cell-based, human; settings: for Log10TGI50 / Log10LC50: T-47D (Breast Cancer); for Log10TGI50: TGI: PG=0; for Log10GI50: Breast Cancer, T-47D; for Log10LC50: LC50: PG=−50
NCI-H226 = assay: NCI 60 cell line panel screen (SRB); format: cell-based, human
U251 = assay: NCI 60 cell line panel screen (SRB); format: cell-based, human; settings: for Log10GI50: CNS Cancer, U251; for Log10LC50 / Log10TGI50: U251 (CNS Cancer); for Log10LC50: LC50: PG=−50; for Log10TGI50: TGI: PG=0

| Compound | ED50 ([1]; route IV) [mg/kg × 4] | ED90 ([1]; route IV) [mg/kg × 4] | % Parasite Supression at 10 mg/kg ([1]; route IV) [%] | ED50 ([1]; route PO) [mg/kg × 4] | ED90 ([1]; route PO) [mg/kg × 4] | % Parasite Supression at 10 mg/kg ([1]; route PO) [%] | Log10TGI50 (HL-60(TB)) [log10M] | Log10TGI50 (EKVX) [log10M] | Log10GI50 (EKVX) | Log10TGI50 (HOP-62) [log10M] | Log10GI50 (HOP-62) | Log10TGI50 (COLO 205) [log10M] | Log10TGI50 (KM12) [log10M] | Log10TGI50 (786-0) [log10M] | Log10GI50 (786-0) | Log10TGI50 (CAKI-1) [log10M] | Log10GI50 (CAKI-1) | Log10TGI50 (RXF 393) [log10M] | Log10TGI50 (T-47D) [log10M] | Log10LC50 (HL-60(TB)) [log10M] | also measured |
| --- | --- | --- | --- | --- | --- | --- | --- | --- | --- | --- | --- | --- | --- | --- | --- | --- | --- | --- | --- | --- | --- |
| CC1CCC2C(C)C(CC(COCC(=O)O)CC3OC4OC5(C)CCC6C(C)CCC(C3C)C46OO5)OC3OC4(C)CCC1C32OO4 (stereo not shown) [Compound 12b, bis-trioxane O-acetic acid] | 1.0 | 3.5 | 95.7 | 6.5 | 17.0 | 46.5 | <−8.30 | >−4.30 | >−4.30 | >−4.30 | −6.23 | −5.28 | <−8.30 | >−4.30 | −6.59 | −6.40 | −6.91 | <−8.30 | >−4.30 | – | ED50 (malaria parasite; Route: IV): 5.2; ED90 (malaria parasite; Route: IV): 10.0; ED50 (malaria parasite; Route: PO): 6.0; ED90 (malaria parasite; Route: PO): 19.0 |
| CC1CCC2C(C)C(CC(O)(CC3OC4OC5(C)CCC6C(C)CCC(C3C)C46OO5)CS(=O)(=O)c3ccc(C(=O)O)cc3)OC3OC4(C)CCC1C32OO4 (stereo not drawn) [Compound 10c, bis-trioxane β-hydroxysulfone benzoic acid] | 2.7 | 10.0 | 83.4 | 7.5 | 35.0 | 46.1 | <−8.30 | −4.63 | −4.99 | −5.01 | <−8.30 | <−8.30 | <−8.30 | −5.08 | <−8.30 | −6.71 | <−8.30 | −5.99 | – | >−4.30 | Log10GI50 (HL-60(TB)): <−8.30; Log10LC50 (EKVX): >−4.30 log10M; Log10LC50 (HOP-62): −4.62 log10M; Log10LC50 (NCI-H226; NCI-H226 (Non-Small Cell Lung Cancer), LC50: PG=−50): −4.82 log10M; Log10TGI50 (NCI-H226; NCI-H226 (Non-Small Cell Lung Cancer), TGI: PG=0): <−8.30 log10M; Log10GI50 (NCI-H226; Non-Small Cell Lung Cancer, NCI-H226): <−8.30; Log10LC50 (COLO 205): −5.55 log10M; Log10GI50 (COLO 205): <−8.30; Log10GI50 (KM12): <−8.30; Log10LC50 (KM12): −5.23 log10M; Log10GI50 (U251): <−8.30; Log10LC50 (U251): −4.72 log10M; Log10TGI50 (U251): −5.22 log10M; Log10LC50 (786-0): −4.64 log10M; Log10LC50 (CAKI-1): −4.93 log10M; Log10LC50 (RXF 393): −4.73 log10M; Log10GI50 (RXF 393): <−8.30; Log10GI50 (T-47D): <−8.30; Log10LC50 (T-47D): >−4.30 log10M |
| C[C@@H]1CC[C@H]2[C@@H](C)C(CC(O)(CC3OC4O[C@]5(C)CC[C@H]6[C@H](C)CC[C@@H]([C@H]3C)C46OO5)c3ccc(C(=O)O)cc3)OC3O[C@]4(C)CCC1C32OO4 (stereo partly shown) [Compound 11b, bis-trioxane tertiary alcohol benzoic acid] | – | – | – | – | – | – | −8.11 | >−4.30 | −4.79 | >−4.30 | −6.96 | −6.99 | <−8.30 | >−4.30 | −7.17 | −6.91 | −7.74 | −7.60 | >−4.30 | −4.55 | Log10GI50 (HL-60(TB)): <−8.30; Log10LC50 (EKVX): >−4.30 log10M; Log10LC50 (HOP-62): >−4.30 log10M; Log10LC50 (COLO 205): −5.28 log10M; Log10GI50 (COLO 205): <−8.30; Log10GI50 (KM12): <−8.30; Log10LC50 (KM12): −5.95 log10M; Log10GI50 (U251): <−8.30; Log10LC50 (U251): >−4.30 log10M; Log10TGI50 (U251): −7.39 log10M; Log10LC50 (786-0): >−4.30 log10M; Log10LC50 (CAKI-1): −4.44 log10M; Log10LC50 (RXF 393): >−4.30 log10M; Log10GI50 (RXF 393): <−8.30; Log10GI50 (T-47D): <−8.30; Log10LC50 (T-47D): >−4.30 log10M |
